In patent publication US11898167B2, “Reversible stencils for fabricating micro-tissues” (The Regents of the University of California, priority 2014, dated 2024):
“Also recorded” adds a separate entry of the source.

Assays:
Type in all cases: cell-based, human
[1] = test system: micro-muscle heart tissues; experiment: Calcium dose response of twitch force of micro-muscles; conditions: increasing extracellular calcium concentrations (2 mM, 6 mM shown)
From the text: Representative micro-muscle heart tissues were generated by seeding small numbers of cardiomyocytes into stencil microwells as described herein. Separate micro-muscles were then contacted with different extracellular calcium concentrations.

[2] = test system: iPS-CM two-dimensional monolayers; experiment: Beating of iPS-CM in unpatterned two-dimensional monolayers/cell clusters, drug response
[3] = test system: wild type iPS-CM micro-tissues; experiment: Beating (beat rate, contraction velocity) of wild type iPS-CM three-dimensional micro-tissues in stencil microwells, drug response
Procedure: (§1) The beating rate, maximum contraction velocity, and spatial coordination of beating within micro-tissues was assessed visually, and quantified using image processing software was used, such as the custom block-matching optical flow software, described in a publication that is currently under review (Huebsch 2014). Micro-tissue response to drugs, including verapamil and isoproterenol, was tested using an automated inverted microscope (Zeiss).
Beginning five days after seeding cells into micro-tissue molds, the beating parameters of spontaneously beating (non-paced) iPS-CM micro-tissues were analyzed. […] Despite this difference, micro-tissues maintained in RPMI media with B27 supplement all beat at nearly the same rate (FIG. 4B). Micro-tissues incubated in StemPro 34 media beat with a slightly more variable rate from one tissue to the next, but at a basal rate closer to the physiological levels of 1 Hz for human cells (data not shown).

[4] = test system: heterozygous MYPBC3+/− iPS micro-tissues; experiment: Beat-rate response of heterozygous MYBPC3 iPS-CM micro-tissues; conditions: first daily 10 uM dose
Procedure: as §1
FIGS. 4G and 4H further illustrate that micro-tissues generated from mutant cells are excellent models of human diseases. Micro-tissues were generated within the dogbone-shaped microwells described herein from three different cell types: wild type MYPBC3^+/+ iPS, heterozygous MYPBC3^+/− iPS, and null MYPBC3^−/− iPS. […] However, upon repeated exposure to isoproterenol, the differences heterozygous and null MYPBC3 tissue responses became less significant (FIG. 4H).

MYBPC3−/− micro-tissues = experiment: Beat-rate response of MYBPC3 null iPS-CM micro-tissues
Procedure: as §1
To model hypertrophic cardiomyopathy, MYPBC3 was knocked out of wild type iPS.

[5] = test system: iPS-CM micro-tissues harboring the GCaMP6f calcium indicator; experiment: Calcium flux (GCaMP6f reporter) in iPS-CM micro-tissues; parameters: dose or concentration left out as unconfirmed; conditions: 1 week and 2 week micro-tissues, paced at 1 Hz; isoproterenol
Procedure: Induced pluripotent stem cells genetically modified to express the GCaMP6f calcium indicator gene product, and then differentiated into cardiomyocytes (iPS-CM). Micro-tissues were made with iPS-CM harboring the GCaMP6f calcium indicator, to allow continuous recording of calcium flux as illustrated in FIG. 8.
FIG. 8D-8E illustrate the functional maturation of iPS-CM-derived micro-tissues (μHT, micro-heart tissues). After 1 or 2 weeks of incubation in the stencil microwells, the micro-tissues were paced at 1 Hz for analysis of inotropy.

## [Ca+2] [calcium]
[1]
  twitch force: dramatically increases

## CC(C)NCC(O)c1ccc(O)c(O)c1 (stereo not shown) [isoproterenol]
[2]; 2D cultured iPS-CM monolayers, non-paced, 10 μm isoproterenol
  beat-rate response: erratic/unpredictable responses; also recorded: varies significantly from one test to the next; also recorded: large variance amongst samples
[2]; 2D monolayers, 10 μm isoproterenol
  intensity of beating (inotropic response): did not affect the intensity of beating
[2]; 2D-cultured cells and cell clusters, high doses
  cessation of beating at high doses: stopped beating
[3]; 3D micro-tissues, wild type iPS-CM, non-paced, 10 μm isoproterenol
  beat-rate response: highly reproducible; also recorded: robust increase in beat-rate response
[3]; 3D micro-tissues, 10 μm isoproterenol
  intensity of beating, measured via the maximum contraction velocity (inotropic response): exhibit an inotropic response
[3]; 3D-cultured micro-tissues within stencil wells, high doses
  cessation of beating at high doses: no such effects were observed
[3]; wild type MYPBC3+/+ micro-tissues, first daily 10 uM dose
  beating frequency in response to isoproterenol: greatest increase in beating frequency
[4]
  beating frequency in response to isoproterenol: less than the wild type MYPBC3 tissues but greater than the null MYPBC3 tissues
MYBPC3−/− micro-tissues; null MYPBC3−/− micro-tissues, first daily 10 uM dose
  beating frequency in response to isoproterenol: returned to a lower beating frequency significantly faster
MYBPC3−/− micro-tissues; short-term (30 minutes) and chronic (5 days of daily dosing) exposure, 10 μm isoproterenol, compared with wild type
  beat-rate (chronotropic response): blunted decrease in beat-rate
[5]
  calcium flux response: responded to isoproterenol

## COc1ccc(CCN(C)CCCC(C#N)(c2ccc(OC)c(OC)c2)C(C)C)cc1OC (stereo not shown) [verapamil]
[3]; stencil micro-tissues compared to the same cells in non-patterned 2D monolayers, 30 minutes per dose
  IC50 value (beating): higher IC50 value
